Results: patent US7709479B1, “Quinazoline derivatives and their use as pharmaceuticals” (AstraZeneca, priority 1999, dated 2010)

Tests used:
MCF-7 cells [1] = assay: In vitro cell proliferation assay, Assay 1 (CyQUANT cell density); type: cell-based; details: Homo sapiens, MCF7, 72 h; MCF-7, 3 days with compound; read-out: concentration giving 50% inhibition of cell proliferation
Description: (b) In Vitro Cell Proliferation Assay
These and other assays can be used to determine the ability of a test compound to inhibit the growth of adherent mammalian cell lines, for example the human tumour cell line MCF7.
Assay 1: MCF-7 (ATCC HTB-22) or other adherent cells were typically seeded at 1×10^3 cells per well (excluding the peripheral wells) in DMEM (Sigma Aldrich) without phenol red, plus 10% foetal calf serum, 1% L-glutamine and 1% penicillin/streptomycin in 96 well tissue culture treated clear plates (Costar). The following day (day 1), the media was removed from a no treatment control plate and the plate stored at −80° C. The remaining plates were dosed with compound (diluted from 10 mM stock in DMSO using DMEM (without phenol red, 10% FCS, 1% L-glutamine, 1% penicillin/streptomycin). Untreated control wells were included on each plate. After 3 days in the presence/absence of compound (day 4) the media was removed and the plates stored at −80° C. Twenty four hours later the plates were thawed at room temperature and cell density determined using the CyQUANT cell proliferation assay kit (c-7026/c-7027 Molecular Probes Inc.) according to manufacturers directions. Briefly, 200 μl of a cell lysis/dye mixture (10 μl of 20× cell lysis buffer B, 190 μl of sterile water, 0.25 μl of CyQUANT GR dye) was added to each well and the plates incubated at room temperature for 5 minutes in the dark. The fluorescence of the wells was then measured using a fluorescence microplate reader (gain 70, 2 reads per well, 1 cycle with excitation 485 nm and emission 530 nm using a CytoFluor plate reader (PerSeptive Biosystems Inc.)). The values from day 1 and day 4 (compound treated) together with the values from the untreated cells were used to determine the dilution range of a test compound that gave 50% inhibition of cell proliferation. Compound no. 1 in Table 1 was effective in this test at 8.03 μM and compound no. 101 in Table 4 was effective in this test at 1.06 μM. […] The optical density of the wells was then determined at 690 nm wavelength using a Titertek Multiscan plate reader. […]

MCF7 cells = assay: In vitro cell cycle analysis assay (FACS DNA content); type: cell-based, human; details: 24 hours
Protocol: This assay determines the ability of a test compound to arrest cells in specific phases of the cell cycle. Many different mammalian cell lines could be used in this assay and MCF7 cells are included here as an example. MCF-7 cells were seeded at 3×10^5 cells per T25 flask (Costar) in 5 ml DMEM (no phenol red 10% FCS, 1% L-glutamine 1% penicillin/streptomycin). Flasks were then incubated overnight in a humidified 37° C. incubator with 5% CO2. The following day 1 ml of DMEM (no phenol red 10% FCS, 1% L-glutamine 1% penicillin/streptomycin) carrying the appropriate concentration of test compound solubilised in DMSO was added to the flask. A no compound control treatments was also included (0.5% DMSO). The cells were then incubated for a defined time (usually 24 hours) with compound. After this time the media was aspirated from the cells and they were washed with 5 ml of prewarmed (37° C.) sterile PBSA, then detached from the flask by brief incubation with trypsin and followed by resuspension in 10 ml of 1% Bovine Serum Albumin (BSA, Sigma-Aldrich Co.) in sterile PBSA. The samples were then centrifuged at 2200 rpm for 10 min. The supernatant was aspirated and the cell pellet was resuspended in 200 μl of 0.1% (w/v) Tris sodium citrate, 0.0564% (w/v) NaCl, 0.03% (v/v) Nonidet NP40, [pH 7.6]. Propridium Iodide (Sigma Aldrich Co.) was added to 40 μg/ml and RNAase A (Sigma Aldrich Co.) to 100 μg/ml. The cells were then incubated at 37° C. for 30 minutes. The samples were centrifuged at 2200 rpm for 10 min, the supernatant removed and the remaining pellet (nuclei) resuspended in 200 μl of sterile PBSA. Each sample was then syringed 10 times using 21 gauge needle. The samples were then transferred to LPS tubes and DNA content per cell analysed by Fluorescence activated cell sorting (FACS) using a FACScan flow cytometer (Becton Dickinson). Typically 25000 events were counted and recorded using CellQuest v1.1 software (Verity Software). Cell cycle distribution of the population was calculated using Modfit software (Verity Software) and expressed as percentage of cells in G0/G1, S and G2/M phases of the cell cycle.

MCF-7 cells [2] = assay: In vitro cell proliferation assay, Assay 2 (BrdU incorporation); type: cell-based; details: Homo sapiens, MCF7; MCF-7, 48 hours with compound, 2 hour labelling; read-out: concentration giving 50% inhibition of BrdU incorporation

IC50 (MCF-7 cells [1]) [nM] | IC50 (MCF-7 cells [2]) [nM] | Structure (SMILES) | % Cells in G1 (MCF7 cells; 2.12 μM) [%] | % Cells in G2/M (MCF7 cells; 2.12 μM) [%] | % Cells in S (MCF7 cells; 2.12 μM) [%] | % Cells in G1 (MCF7 cells; 25 μM) [%] | % Cells in G2/M (MCF7 cells; 25 μM) [%] | % Cells in S (MCF7 cells; 25 μM) [%]
1570 | – | COc1cc2ncnc(Nc3ccc(C(=O)NCc4ccc(F)cc4)cc3)c2cc1OC [Compound 557] | – | – | – | – | – | –
1060 | 159 to 209 | COc1cc2c(Nc3ccc(NC(=O)c4ccccc4)cc3)ncnc2cc1OCCCN1CCOCC1 [Compound 101] | 19.69 | 68.21 | 12.4 | – | – | –
8030 | 1240 | COc1cc2ncnc(Nc3ccc(NC(=O)c4ccccc4)cc3)c2cc1OC [Compound 1] | – | – | – | 25.82 | 56.47 | 17.71
